In experiment [1] the test system is Rb, Nucleolin, Cdc6 and Nbs1 phosphorylation. In words: Immunofluorescence and western blotting of endogenous CDK2 substrates. It counts as cell-based, human. The conditions noted are these: for Rb phosphorylation: 1 hr palbociclib treatment. The protocol: Cells were fixed for 15 minutes with freshly prepared 4% paraformaldehyde, washed twice with PBS, and incubated with a blocking buffer (3% BSA in PBS) for 1 hr at room temperature. Permeabilization was carried out using 0.2% Triton-X 100 for 15 min at 4° C. Primary antibody was diluted in blocking buffer and incubated with cells overnight at 4° C. followed by three washes with 1×PBS. Secondary antibodies conjugated to Alexa Fluor 488, Alexa Fluor 546 or Alexa Fluor 647 were incubated for 1 hr followed by three washes with 1×PBS. DNA was stained using Hoechst 33342 dye for 10 minutes at 1:10000 (ThermoFisher H3570). Images were acquired on a Nikon Eclipse Ti or Ti2 microscope with a 10×0.45 NA objective. DNA content was determined by taking the integrated intensity of each cell's Hoechst signal. Cells were delineated as 3-4N DNA content by plotting a histogram of DNA content and drawing a threshold and the end of the 2N peak.
Lysates were prepared using 1×LDS sample buffer (ThermoFisher NP007) using equal numbers of cells. Proteins were separated using NuPAGE precast polyacrylamide gels (ThermoFisher NP0301). Total protein was quantified using Azure Red Dye (Azure Biosystems AC2124) and was used to normalize the signal from antibodies of interest. Primary antibodies used are specified under the “Antibodies” section. HRP-conjugated or IR700 and IR800 labeled fluorescent secondary antibodies were used for visualization (Cell Signaling Technology 7074 and 7076).
(Immunoblotting shows a protein as a band on a membrane.)

For experiment [2], the system named is Kras^+/LSLG12V; Trp53^L/L lung tumors. In words: Mouse lung tumor model, tumor volume by CT scans. It counts as in vivo. The protocol: To test the potential compensatory relationship between CDK2 and CDK4/6 in vivo, an established mouse lung tumor model driven by KRAS^G12V and TRP53 mutations was used. Kras^+/LSLG12V, Trp53^L/L mice intra-nasally infected with adenoviral particles encoding Cre recombinase developed lung tumors with a latency of 5 months. Once tumor development was detected by CT scans, animals were treated with either vehicle or palbociclib (70 mg/kg QD) for 28 days and tumor volumes were subsequently measured by CT scans at the end of the treatment period.
Mice: Kras^+/LSLG12V Trp53^L/L and Cdk2^−/− mice have been previously described (Guerra et al., 2003; Jonkers et al., 2001; Ortega et al., 2003). Compound mice using the following transgenes: Kras^+/LSLG12V, (Guerra et al., 2003); Trp53^L/L (Lee et al., 2012), and Cdk2^−/− (Ortega et al., 2003) were generated for this study. All animal experiments were approved by the Ethical Committees of the Spanish National Cancer Research Centre (CNIO), the Carlos III Health Institute and the Autonomous Community of Madrid (PROEX 270/14) and were performed in accordance with the guidelines stated in the International Guiding Principles for Biomedical Research Involving Animals, developed by the Council for International Organizations of Medical Sciences (CIOMS). Mice were housed in specific-pathogen-free conditions at CNIO's Animal Facility (AAALAC, JRS:dpR 001659). Female and male mice were used for the experiments. All mice were genotyped at the CNIO's Genomic Unit. […]
Micro CT imaging: Image studies were done by the Molecular Imaging Core Unit at the CNIO. […] Tumor volume was calculated as follows: (short axis x short axis x long axis/2).
Pharmacological treatment in mice: Kras^+/LSLG12V; Trp53^L/L; Cdk2^−/− and Kras^+/LSLG12V; Trp53^L/L; Cdk2^+/+ mice were infected with 10^6 pfu of Ad-Cre. Once tumors were detected by CT, mice harboring at least one tumor bigger than 3 mm^3 were enrolled in the different treatment groups. […] Drug efficacy was monitored by CT measurements.

The test system of experiment [3] is MCF10A, RPE-hTERT, MCF7 and OVCAR3 cells. The experiment is described as follows: Cell-cycle progression, mitosis and proliferation by time-lapse imaging. It counts as cell-based, human. From the text: The DHB sensor is localized to the nucleus when it is not phosphorylated. Upon phosphorylation, the nuclear localization signal is masked, the nuclear export signal is unmasked, and the sensor steadily translocates to the cytoplasm in response to increasing CDK2 activity (FIG. 1A). Thus, kinase activity can be quantified by the ratio of the cytoplasmic to nuclear fluorescence intensity (C/N ratio) of the DHB sensor. […] Asynchronously cycling cells were first imaged for approximately 20 hr in the absence of drug to establish the cell-cycle phase of each cell; the movie was then paused to add drug, and then imaging was continued for another 1-2 days. Because the cells were cycling asynchronously, all cell-cycle phases with one drug treatment were sampled. This allowed the present inventors to computationally isolate traces for cells that received drug at any time since the completion of anaphase.
Cells were seeded at least 24 hr prior to imaging in phenol-red-free full-growth medium in glass-bottom 96-well plates (CellVis P96-1.5H-N) that were coated with collagen prior to seeding. The seeding density was chosen such that the cells would remain sub-confluent until the end of the imaging period. Cells were first imaged for 16-20 hr in full-growth media without drug. The movie was then briefly paused and the full-growth media was replaced with full-growth media containing drug at the desired concentration. The plate was then re-inserted into the microscope and aligned to its prior position and imaging was continued for an additional 24-48 hr. Images were acquired every 12 min (for MCF10A or RPE-hTERT) or every 20 min (for MCF7 or OVCAR3) on a Nikon Eclipse Ti or Ti2 microscope with a 10×0.45 NA objective in a humidified, 37° C. chamber at 5% CO2. Exposure times for all movies for all channels were kept under 500 ms per timepoint to minimize phototoxicity. Cell tracking was performed using published MATLAB scripts (Cappell et al., 2016), as described previously (Arora et al., 2017). The tracking code is available for download at https://github.com/scappell/Cell_tracking. Cell counts over time were obtained by counting the number of segmented nuclei in each frame of the movie.

Where [4] appears, read: PF3600, MCF10A, MCF7 and RPE-hTERT cells.

Each structure is given as a SMILES string.

Take `C[C@@]1(O)CCC[C@H]1n1c(=O)c(C(F)F)cc2cnc(NC3CCN(S(C)(=O)=O)CC3)nc21` [PF3600, 6-(difluoromethyl)-8-[(1R,2R)-2-hydroxy-2-methylcyclopentyl]-2-{[1-(methylsulfonyl)-piperidin-4-yl]amino}pyrido[2,3-d]pyrimidin-7(8H)-one]: the “Rb and Nucleolin phosphorylation by immunofluorescence” value in experiment [1] (100 nM PF3600, MCF10A cells with 3-4N DNA content) is “transient reduction in Rb and Nucleolin phosphorylation followed by a rebound”. In addition, in experiment [2] (PF3600 50 mg/kg BID for 4 weeks, Trp53^L/L mice), the tumor volumes result is given as “significantly reduced tumor volumes”. In experiment [3] (25 nM PF3600, OVCAR3 cells, remainder of the imaging period), the “cell proliferation and mitoses” value is “inhibited cell proliferation and prevented all further mitoses”. In addition, the mitosis result in experiment [3] (100 nM PF3600, MCF7) was “blocked mitosis”. Also, in experiment [3] (setting [4]), the “cell-cycle progression and mitosis after PF3600” value was “cell-cycle progression continued, and cells eventually completed mitosis”; the intermitotic times entry is “longer intermitotic times”.

On to `CC(=O)c1c(C)c2cnc(Nc3ccc(N4CCNCC4)cn3)nc2n(C2CCCC2)c1=O` [palbociclib], for which the values for the Rb phosphorylation entry in experiment [1] (cells with 2N DNA content) and in experiment [1] (cells with 3-4N DNA content) were “dephosphorylation of Rb” and “no effect”, respectively. In addition, in experiment [2] (palbociclib 70 mg/kg QD for 4 weeks, Trp53^L/L, Cdk2^−/− mice, p=0.037), the tumor size result is “significantly reduced tumor size”. The “tumor volume fold change vs vehicle” value in experiment [2] (palbociclib 70 mg/kg QD for 28 days, Trp53^L/L mice (Cdk2^+/+)) is “no significant reduction in tumor burden”. For the same compound, in experiment [3] (1 μM palbociclib (after the upcoming mitosis) or 9 μM RO3306 (toward end of cell cycle), MCF10A), the cell-cycle arrest entry is on record as “CDK2^low G0 arrest”. The sensitivity to palbociclib result in experiment [3] (MCF10A, MCF7 and RPE-hTERT cells) is recorded as “palbociclib-sensitive”; in experiment [3] (OVCAR3 cells (amplification of cyclin E)) it was “resistant”.
